Measurements as given in the supplement of paper PMC5412046.
Where a name gives a salt, the structure may show the parent alone.

What was measured:
SB.mhdgc-1 [1] = assay: viability at highest tested concentration (MAXR) relative to DMSO; higher = less cytotoxic; conditions: SB.mhdgc-1 (hereditary c.1380delA CDH1 gastric cancer)
How it was run: (§1)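 The values represent viability normalised to DMSO, expressed at the highest concentration or as trapezoidal area under the curve. Cells were hereditary or sporadic patient-derived gastric cancer cells, 500 in 5 μL medium per 1536 well. They were dosed with 23 nL of compound in DMSO by pintool over 11 threefold dilutions, with each compound's top concentration recorded. CellTiter-Glo was applied 48 h later for 30 min at room temperature before luminescence was read on a ViewLux.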

SB.msgc-1 [2] = assay: as above; conditions: SB.msgc-1 (sporadic gastric cancer)
How it was run: as §1

SB.mhdgc-1 [3] = assay: area under the dose-response curve of % viability (trapezoidal, 11 doses) (% viability x log10 concentration); higher = less cytotoxic; conditions: SB.mhdgc-1 (hereditary c.1380delA CDH1 gastric cancer)
How it was run: as §1

SB.msgc-1 [4] = assay: as above; conditions: SB.msgc-1 (sporadic gastric cancer)
How it was run: as §1

SMILES	viability (SB.mhdgc-1 [1])	viability (SB.msgc-1 [2])	area under the dose-response curve (SB.mhdgc-1 [3])	area under the dose-response curve (SB.msgc-1 [4])
O=C(C[C@@H]1C/C=C\CCC(=O)O[C@H](c2ccccc2)CNC1=O)NCc1ccc(Cl)cc1 [Robotnikinin] (top concentration 46.0829 µM)	70.3%	61.1%	431	485
CN1CCN2c3ccccc3Cc3ccccc3C2C1 (configuration not stated) [Mianserin hydrochloride] (top concentration 46.0829 µM)	80.8%	94%	508	536
CC(CCc1ccc(O)cc1)NCCc1ccc(O)c(O)c1 (configuration not stated) [Dobutamine hydrochloride] (top concentration 46.0829 µM)	49.9%	87.6%	453	538
CCOC(=O)c1ccc(OC(=O)CCCCCNC(=N)N)cc1 [Gabexate mesilate] (top concentration 46.0829 µM)	116%	120%	485	547
CN1CCCN(CC1)C2=CC=C3C(=O)\C(=C/4SC5=C(C=CC=C5)N4C3=N2)C(=O)NCC6=CN=C(C)C=N6 [CX-5461] (top concentration 23.0415 µM)	100%	77.9%	546	528
CC(C)NCC(O)COc1ccc(COCCOC(C)C)cc1 (configuration not stated) [Bisoprolol] (top concentration 46.0829 µM)	107%	119%	508	555
CC1(C)CCC(=C(\C1)C2=CC=C(Cl)C=C2)/CN3CCN(CC3)C4=CC(=C(C=C4)C(=O)N[S+]([O-])(=O)C5=CC=C(NCC6CCOCC6)C(=C5)[N+]([O-])=O)OC7=CN=C8[NH]C=CC8=C7 [ABT-199] (top concentration 46.0829 µM)	3.26%	21.7%	498	501
COC/1=C/[C@@H]2[C@@H]3CC4=C(C(=C(OC)C=C4)O)[C@]2(CCN3C)CC1=O [Sinomenine] (top concentration 46.0829 µM)	24.9%	37.2%	417	380
COc1cc2c(cc1OC)CN(CCc1ccc(NC(=O)c3cccc4c(=O)c5cccc(OC)c5[nH]c34)cc1)CC2 [Elacridar] (top concentration 46.0829 µM)	35.1%	55.4%	404	480
O=c1oc2c(O)c(O)cc3c(=O)oc4c(O)c(O)cc1c4c23 [Ellagic acid] (top concentration 46.0829 µM)	67.8%	80.7%	533	565
N[S+](=O)([O-])c1cccc2c1C(=O)c1cccc(O)c1C2=O [LLL-12] (top concentration 46.0829 µM)	3.33%	2.09%	240	274
FC(F)(F)c1ccc(Nc2nc3cc(Oc4ccnc(-c5ncc(C(F)(F)F)[nH]5)c4)ccc3[nH]2)cc1 [RAF-265 derivative] (top concentration 46.0829 µM)	60.5%	29.6%	476	436
CSC1=CC(=CC=C1)NC2=NC3=C(C=N2)/C=C(C(=O)N3C)/C4=C(Cl)C=CC=C4Cl (top concentration 46.0829 µM)	53.5%	42.9%	490	399
C[S+](=O)([O-])c1ccc(C(=O)Nc2ccc(Cl)c(-c3ccccn3)c2)c(Cl)c1 [Vismodegib] (top concentration 46.0829 µM)	81.5%	64.1%	535	494
O=C(Nc1nnc(-c2ccco2)o1)c1cc(-c2ccccc2)nc2ccccc12 [STX-0119] (top concentration 46.0829 µM)	50.2%	44.1%	428	474
O=[S+]([O-])(c1cccc2cnccc12)N1CCCNCC1 [Fasudil] (top concentration 46.0829 µM)	42.3%	76.5%	480	557
N#CCNC(=O)c1ccc(-c2ccnc(Nc3ccc(N4CCOCC4)cc3)n2)cc1 [CYT387] (top concentration 46.0829 µM)	47.3%	26.9%	534	474
CCCCC(C=O)NC(=O)C(CC(C)C)NC(=O)OCc1ccccc1 (configuration not stated) [Calpeptin] (top concentration 46.0829 µM)	98.5%	83.5%	507	488
CN(C)[C@@H](CCOc1cccc2ccccc12)c1ccccc1 [Dapoxetine hydrochloride] (top concentration 46.0829 µM)	15.4%	47%	463	516
COc1cc2c(cc1OC)CC(=O)N(CCCN(C)C[C@H]1Cc3cc(OC)c(OC)cc31)CC2.Cl [Ivabradine hydrochloride] (top concentration 46.0829 µM)	60.9%	70.4%	503	559
C[C@H](NC(=O)Cc1cc(F)cc(F)c1)C(=O)N[C@H](C(=O)OC(C)(C)C)c1ccccc1 [GSI-9] (top concentration 46.0829 µM)	88.9%	77.2%	501	483
ClC1=CC=C(C=C1)C(C#N)C2=C(Cl)C=C(C=C2Cl)N3\N=C/C(=O)NC3=O (configuration not stated) [Diclazuril] (top concentration 46.0829 µM)	8.68%	61%	538	511
CC(=O)Nc1ccc(OC[C@](C)(O)C(=O)Nc2ccc([N+](=O)[O-])c(C(F)(F)F)c2)cc1 [Andarine] (top concentration 46.0829 µM)	88.6%	57.7%	425	302
